Reference: patent publication US4737361A, “Alpha adrenergic amine of substantial alpha2 adrenergic amine activity as an antiperspirant” (Bristol-Myers Company, priority 1986, dated 1988)
Structures can show the parent of a compound that is named as a salt.

Assays:
sweat glands = assay: rat foot pad sweat inhibition (starch-iodine count of secreting sweat glands, test foot vs control foot); type: in vivo, Sprague Dawley rats; settings: for Approx. % Inhibition: topical, rat hind foot pads, 40 minutes post treatment
Description: A series of test solutions were prepared by dissolving various quantities of xylometazoline HCl, oxymetazoline HCl and naphazoline HCl in freshly prepared distilled water. In the case of xylometazoline HCl 0.003%, 0.03%, 0.15% and 0.3% solutions were prepared. In the cases for oxymetazoline HCl and naphazoline HCl 0.15% solutions were made. The control material is distilled water.
A. Prior to testing, rats are routinely acclimated to the laboratory environment for seven days and gross observations are made to ensure good health of animals to be tested.
B. Sprague Dawley rats, male and/or female (175-250 gm) are selected for test and identified by cage label and ear tag number.
C. A minimum of 6 animals is used in testing each solution.
A. Test room should be maintained at a temperature of 78°±2° F.
1. Test animals are injected intramuscularly with Innovar Vet™ (0.01 ml/100 gm body wt.) by use of a 0.25 ml tuberculin syringe with a 26 or 27 gauge needle. Animals are then returned to their cages.
3. Both hind feet are then swabbed with 70% ethyl alcohol (ETOH) to remove any debris.
4. The four interdigital palmar foot pads on one hind foot are then treated with test material while the opposite hind foot is treated with the control material.
5. After treatment of all animals, an iodine solution (2% in 95% ETOH wt./vol.) is applied to both hind feet.
6. 30 minutes post treatment the hind feet are then painted with a suspension of starch and castor oil (50/50, wt./vol.).
7. 40 minutes post treatment Polaroid photos (3X, using Polaroid Type Film 669) are taken of both hind feet in the same frame.
1. The number of activated sweat glands in each of the four palmar foot pads is quantitated by manually counting the black dots observed in the photo of the control and test treated feet.
2. The ratio of the total number of secreting sweat glands on the control foot vs the total number of secreting sweat glands on the test foot is used to estimate the percent inhibition of sweat in the rat foot pad.
3. The following formula is used to calculate activity. [formula]

[1] = tested on: single equine sweat glands; settings: cited from earlier work

SMILES	Approx. % Inhibition (sweat glands; Concentration Tested 0.15%)	sweating responses [1]	also measured
c1ccc2c(CC3=NCCN3)cccc2c1 [Naphazoline HCl, naphazoline HCl]	~95%	–	–
Cc1cc(C(C)(C)C)c(O)c(C)c1CC1=NCCN1 [Oxymetazoline HCl, oxymetazoline HCl]	~92%	–	–
Cc1cc(C(C)(C)C)cc(C)c1CC1=NCCN1 [Xylometazoline HCl, xylometazoline HCl]	~80%	–	dose response of percent inhibition (sweat glands; 0.003-0.3% solutions): the percent inhibition increased with the increase in concentration of the test drug; Approx. % Inhibition (sweat glands; Concentration Tested 0.003%): ~30%; Approx. % Inhibition (sweat glands; Concentration Tested 0.03%): ~50%; Approx. % Inhibition (sweat glands; Concentration Tested 0.3%): ~88%
COc1ccc(OC)c(C(O)C(C)N)c1 (stereo not drawn) [methoxamine]	–	moderate sweating responses	–
CNC[C@H](O)c1cccc(O)c1 [phenylephrine]	–	moderate sweating responses	–
